≈ marks a conversion by molar mass, not a printed value.

For the series the following is noted: buffer; pH 7.4; 200.0 µM.
By solubility (kinetic) is commonly meant the concentration staying in solution when a stock, usually in DMSO, is diluted into the medium. The compound `Cc1ccc(C(=O)NCCNS(=O)(=O)c2ccccc2)cn1` displayed a solubility (kinetic) above 47.9 µg/mL.

In turn, `CCc1c(-c2ccccc2)[n+](=O)c2c(n1[O-])CCC2` came in with a solubility (kinetic) above 38.4 µg/mL.

On to `Cc1ccccc1OCC(=O)NCCCNC(=O)c1ccco1`, for which the solubility (kinetic) was 43.9 µg/mL (≈ 139 µM).

In the case of `CCC1(C)Cc2c(sc3nc(SC)[nH]c(=O)c23)CO1` (stereo not given), the kinetic solubility was found to be 7.9 µg/mL (≈ 26.7 µM).

Consider `COC(=O)CN1C(=O)N/C(=C/c2ccc(OC)cc2)C1=O`, for which the solubility (kinetic) was 17.4 µg/mL (≈ 59.9 µM).

For the compound `O=C(COC(=O)c1ccc([N+](=O)[O-])o1)NCc1ccccc1`, the kinetic solubility was above 45.6 µg/mL.

Compound `COc1ccccc1NC(=S)NC1CCCCCCCCCCC1` returned a kinetic solubility below 0.4 µg/mL.

In the case of `CC(C)C(=O)Nc1c2c(nn1-c1ccc(F)cc1)CS(=O)(=O)C2`, the kinetic solubility is above 50.6 µg/mL.

As for `Cc1ccccc1C(=O)Nc1cccc(NC(=O)c2ccccc2[N+](=O)[O-])c1`, the kinetic solubility turned out to be 1.2 µg/mL (≈ 3.2 µM).

In turn, `Cn1cccc1C(=O)OCC(=O)c1c[nH]c2ccccc12` registered a kinetic solubility of 9.9 µg/mL (≈ 35.1 µM).

Consider `COCCCNC(=S)N1CCC(NC(=O)c2ccco2)CC1`, for which the kinetic solubility is above 48.8 µg/mL.

Take `CCN(CC)C(=O)c1sc2nc(-c3ccccc3)ccc2c1N`: the kinetic solubility came to 19.8 µg/mL (≈ 60.8 µM).

For the compound `Cc1ccc(C(=O)COC(=O)CCNS(=O)(=O)c2ccccc2F)cc1`, the solubility (kinetic) was above 56.9 µg/mL.

On to `Cc1ccc(NC(=O)NC2CCCCCCC2)cc1`, for which the solubility (kinetic) was below 0.3 µg/mL.

With `Cc1ccccc1NC(=O)C1CCN(C(=O)NC2CCCCC2)CC1`, the solubility (kinetic) was above 51.5 µg/mL.

On to `CC(C)c1ccc(CNCCCSc2ncccn2)cc1.Cl`, for which the solubility (kinetic) amounted to 49.1 µg/mL.

In turn, `O=C(NCCCO)/C(=C\c1ccco1)NC(=O)c1ccco1` yielded a kinetic solubility above 45.6 µg/mL.

Turning to `CN(Cc1nc2ccccc2n1C)c1ccccc1`, the kinetic solubility is above 37.7 µg/mL.

In the case of `Cc1ccc(C(CC(=O)N2CCCC2)c2ccccc2)c(O)c1` (stereo not given), the kinetic solubility was above 46.4 µg/mL.

Regarding `O=C(Nc1nccs1)C1CC(=O)N(c2ccccc2)C1` (stereo not given), the kinetic solubility was above 43.1 µg/mL.

In turn, `O=C1C2C3C=CC(CC3)C2C(=O)N1c1ccccc1F` (stereo not given) displayed a solubility (kinetic) of 19.6 µg/mL (≈ 72.2 µM).

`COc1ccccc1C1CCN(Cc2cccc([N+](=O)[O-])c2)CC1` displayed a solubility (kinetic) of 16.4 µg/mL (≈ 50.2 µM).

`CC(=O)c1sc(NC(=O)c2ccc(C)c(C)c2)nc1C` registered a kinetic solubility below 0.3 µg/mL.

For the compound `Fc1cccc(Cc2noc(CN3CCSCC3)n2)c1`, the solubility (kinetic) was above 44 µg/mL.

The compound `C/C(=N\OCC(=O)NC(C)C)c1cccs1` came in with a kinetic solubility of 32.5 µg/mL (≈ 135 µM).

In turn, `CCc1sc(C(=O)NCc2ccco2)cc1Br` displayed a solubility (kinetic) of 25.9 µg/mL (≈ 82.4 µM).

With `Cc1c(C)c(C)c(S(=O)(=O)N2CCSCC2)c(C)c1C`, the kinetic solubility was 1.5 µg/mL (≈ 4.78 µM).

As for `COc1ccc(C2c3ccc(O)cc3Oc3ncn(CC(C)C)c(=N)c32)cc1` (stereo not given), the kinetic solubility amounted to 53.8 µg/mL (≈ 143 µM).

The compound `Cc1ccc(SCC(=O)c2ccc[nH]2)cc1` returned a solubility (kinetic) of 24.6 µg/mL (≈ 106 µM).

For `COc1ccccc1C(=O)CSc1nccn1C`, the solubility (kinetic) turned out to be 35.9 µg/mL (≈ 137 µM).

In turn, `COc1ccc(-n2c(C)ccc2C)c([N+](=O)[O-])c1` returned a kinetic solubility of 22.7 µg/mL (≈ 92.2 µM).

Compound `COc1ccc(CNC(=O)c2cc(=O)c3cc(C)cc(C)c3o2)cc1` showed a kinetic solubility below 0.7 µg/mL.

The compound `CCCC(=O)Nc1ccc(S(=O)(=O)Nc2nccs2)cc1` yielded a solubility (kinetic) of 30.4 µg/mL (≈ 93.4 µM).

`COc1ccc(C(=O)Cn2c(=O)oc3ccc(C)cc32)cc1` gave a solubility (kinetic) below 0.6 µg/mL.

For the compound `O=C(NC1CC1)C1CCN(c2nc3ccccc3s2)CC1`, the kinetic solubility is above 45.2 µg/mL.

As for `COc1ccc(N2Cc3ccc(OC)c(OC)c3C2=O)cc1`, the kinetic solubility was above 44.9 µg/mL.

Consider `N#Cc1nc(-c2ccc(F)cc2)oc1NCc1ccco1`, for which the kinetic solubility came out at 1.1 µg/mL (≈ 3.88 µM).

As to `CC(C)(C)N(Cc1ccccc1)C(=O)COC(=O)c1ccc(N2CCCC2=O)cc1`, the solubility (kinetic) turned out to be 2.5 µg/mL (≈ 6.12 µM).

In turn, `CCCNC(=O)COC(=O)c1c2c(nc3ccccc13)CCC2` had a kinetic solubility of 45.5 µg/mL (≈ 146 µM).

`COC(=O)c1scc(S(=O)(=O)C(C)(C)C)c1N` registered a solubility (kinetic) of 26 µg/mL (≈ 93.7 µM).

`Cc1nc2ccccn2c1-c1csc(Nc2ccc(C(=O)O)cc2)n1`: the solubility (kinetic) is 2.5 µg/mL (≈ 7.13 µM).

For the compound `COC(=O)C1CCCN1C(=O)C12CC3CC(CC(C3)C1)C2` (stereo not given), the kinetic solubility turned out to be 41.9 µg/mL (≈ 144 µM).

In turn, `CCCCCCC(=O)Nc1ccc(S(=O)(=O)Nc2onc(C)c2C)cc1` showed a kinetic solubility above 56.9 µg/mL.

As for `Cc1cccc(-c2cnn(-c3ccccc3)c2N)c1`, the kinetic solubility is above 37.4 µg/mL.

With `COc1cc2c(cc1OC)C(C)N(S(=O)(=O)c1cccs1)CC2` (stereo not given), the kinetic solubility is 41.1 µg/mL (≈ 116 µM).

`Cc1ccc(C)c(C(=O)CCC(=O)Nc2ccc(F)cc2)c1` had a kinetic solubility of 1 µg/mL (≈ 3.34 µM).

Compound `Cc1cccc(C)c1N1C(=O)CN(Cc2ccccc2)C1=S` gave a solubility (kinetic) of 27.8 µg/mL (≈ 89.6 µM).

For the compound `COc1ccc(S(=O)(=O)N2CCN(C(=O)C3CC3)CC2)cc1`, the solubility (kinetic) came to 48.6 µg/mL (≈ 150 µM).

For the compound `Cn1cc(-c2ccccc2C(N)=O)c(=O)c2cc(Cl)ccc21`, the solubility (kinetic) was determined as 46.3 µg/mL (≈ 148 µM).

For `Cl.Fc1c(F)c(F)c(N2CCNCC2)c(F)c1F`, the solubility (kinetic) is above 43.3 µg/mL.

Consider `CCOC(=O)c1c(C=O)c2ccccc2n1Cc1ccccc1F`, for which the kinetic solubility was below 0.7 µg/mL.

Compound `Cc1cc(=O)n2cccc(O)c2n1.Cl` gave a kinetic solubility of 21.7 µg/mL.

`O=C(Nc1ccc(Oc2cccc(C(F)(F)F)c2)nc1)c1cccs1` returned a solubility (kinetic) below 0.4 µg/mL.

Take `C=CCN(Cc1ccc(Cl)s1)C(=O)c1ccc(F)c(S(=O)(=O)N2CCOCC2)c1`: the kinetic solubility was found to be 23.8 µg/mL (≈ 51.9 µM).

The compound `CSc1cccc(NC(=O)CC(C)n2ccnc2)c1` (stereo not given) had a solubility (kinetic) above 41.3 µg/mL.

Regarding `CC(=O)c1c2c3c(cccc3n(C)c1=O)C(=O)c1ccccc1-2`, the kinetic solubility was below 0.6 µg/mL.

With `O=C(CSc1ccccc1)NCCc1ccccc1`, the kinetic solubility is 39.4 µg/mL (≈ 145 µM).

Consider `COc1cc(Cl)c(C)cc1NC(=O)CSC1=NCCS1`, for which the solubility (kinetic) was 11 µg/mL (≈ 33.2 µM).

With `CCOC(=O)C1CCN(C(=S)Nc2ccc(C)cc2)CC1`, the solubility (kinetic) stood at 19.9 µg/mL (≈ 64.9 µM).

For the compound `CCc1ccccc1NC(=O)[C@@H]1CCC(=O)N1C1OC(=O)c2ccccc21` (stereo not given in full), the solubility (kinetic) was above 54.7 µg/mL.

With `Cc1ccc(NC(=O)c2ccc3[nH]c(=O)c(=O)[nH]c3c2)nc1`, the kinetic solubility amounted to 8.7 µg/mL (≈ 29.4 µM).

Compound `CC(=O)Nc1cccc2c1C(=O)N(c1ccccc1OC(C)=O)C2=O` showed a kinetic solubility above 50.7 µg/mL.

Turning to `CCC1Oc2ccc(C)cc2N(CC(=O)NCc2cccs2)C1=O` (stereo not given), the solubility (kinetic) was 5.2 µg/mL (≈ 15.1 µM).

Turning to `Cc1sc2ncnc(NCC(O)c3ccc([N+](=O)[O-])cc3)c2c1C` (stereo not given), the kinetic solubility came out at 5.5 µg/mL (≈ 16 µM).

`COc1ccc(NC(=O)COC(=O)CCSc2ccccc2)cc1OC` displayed a kinetic solubility of 55.5 µg/mL (≈ 148 µM).

`S=c1[nH]ccn1-c1ccccc1Cl` yielded a kinetic solubility above 31.6 µg/mL.

`Cc1ccc(C(=O)NCC(=O)OCC(=O)c2ccccc2)s1`: the solubility (kinetic) is above 47.6 µg/mL.

In turn, `O=C1CSC(c2cccnc2)N1Cc1ccc(Cl)c(Cl)c1` (stereo not given) showed a solubility (kinetic) of 48.7 µg/mL (≈ 144 µM).

`C#CCn1cccc(C(=O)Nc2ccc(OC)cc2)c1=O`: the solubility (kinetic) came to 6.3 µg/mL (≈ 22.3 µM).

In turn, `O=C(CCN1C(=O)C2C3CCC(C3)C2C1=O)Nc1ccc(F)cc1` (stereo not given) showed a kinetic solubility of 36.8 µg/mL (≈ 111 µM).

Compound `O=C(C1CCCC1)N1CCN(S(=O)(=O)c2cccc(Cl)c2Cl)CC1` gave a kinetic solubility of 27.4 µg/mL (≈ 70 µM).

In turn, `Cl.c1ccc2c(c1)OCC(C1=NCCN1)O2` (stereo not given) displayed a kinetic solubility above 36.1 µg/mL.

With `Cc1cccc(OCCN2CCOCC2)c1C`, the solubility (kinetic) is 24.4 µg/mL (≈ 104 µM).

`CCOc1ccc(NC(=O)CNC(=O)c2ccc(OC)cc2)cc1` had a kinetic solubility of 4.1 µg/mL (≈ 12.5 µM).

Consider `CN(CCc1ccccn1)C(=S)Nc1ccc(Cl)cc1Cl`, for which the solubility (kinetic) was 46.2 µg/mL (≈ 136 µM).
